Test results: US5681685A, “Photopolymerizable composition containing squarylium compound” (Kyowa Hakko Kogyo Co., Ltd., priority 1994, dated 1997)

Key:
[1] = Optical absorption property in chloroform; format: physicochemical; details: solvent chloroform
[2] = Degraded rate of squarylium compound in photosensitive resin solution with 2,4,6-tris(trichloromethyl)-s-triazine (Example 7); format: physicochemical; details: 40° C., 3 days, light-screened, ethyl cellosolve, relative to Compound (A)
Experimental: (§1) 0.5 g of pentaerythritol triacrylate, 0.5 g of butyl methacrylate/acrylic acid copolymer (weight-average molecular weight 3,100, copolymerization ratio 66/34), 60 mg of 2,4,6-tris(trichloromethyl)-s-triazine and 2 mg of a squarylium compound were dissolved in ethyl cellosolve to 25 ml to give a photosensitive resin solution. This solution was light-screened and allowed to stand at 40° C. for 3 days. The absorbance at the maximum absorption wavelength present in 600 to 700 nm was measured with a spectrophotometer before (A1) and after (A2) being allowed to stand. The degraded rate of the squarylium compound was obtained according to the following equation:
(§2) Degraded rate (%)=(A1-A2)/A1 ×100
The degraded rates of squarylium Compounds 1 to 9 are shown as a relative value based on the degraded rate of Compound (A) in Table 5.

[3] = Degraded rate of squarylium compound in photosensitive resin solution with iron(II) hexafluorophosphate complex (Example 8); format: physicochemical; set-up: key: degraded rate relative to that of Compound (A); details: 40° C., 32 days, light-screened, ethyl cellosolve, relative to Compound (A)
Experimental: as §1, §2
0.5 g of pentaerythritol triacrylate, 60 mg of polymethyl methacrylate (manufactured by Aldrich; weight-average molecular weight 12,000), 90 mg of (.eta.^6 -benzene)(.eta.^5 cyclopentadienyl)iron(II) hexafluorophosphate and 2 mg of a squarylium compound were dissolved in ethyl cellosolve to 25 ml to give a photosensitive resin solution. Thereafter, the same procedures as those in Example 7 were repeated except that a time for being allowed to stand of 3 days was replaced with that of 32 days to give the degraded rate of the squarylium compound. The degraded rate of squarylium Compounds 1 to 9 are shown as a relative value based on the degraded rate of Compound (A) in Table 6.

[4] = Sensitivity of photosensitive layer with 2,4,6-tris(trichloromethyl)-s-triazine (Example 9); details: energy necessary for hardening, s-triazine radical generator
From the text: (§3) 100 parts of pentaerythritol triacrylate, 100 parts of polymethacrylate polymer [synthesized according to the methods described in Jikkenkagakukoza, Maruzen K. K., 4th edition, volume 28, page 121, 1992; Kobunshigosei no Jikkenho (Experimental method for polymer synthesis), Kagakudojin K. K., coauthored by Takayuki Otsu and Masaetsu Kinoshita, page 138, 1972; average molecular weight 150,000; methyl ester/isobutyl ester/cyclohexyl ester/free carboxylic acid=27/36/25/12], 7.9 parts of 2,4,6-tris(trichloromethyl)-s-triazine and 1 part of a squarylium compound were dissolved in 1900 parts of ethyl cellosolve to give a photosensitive resin solution. This photosensitive solution was spin-coated on an aluminium plate treated with grinding and anodic oxidation, at 1000 rpm so that the dry-state thickness became 2 μm. On this, a 10% aqueous polyvinyl alcohol (Kurarey Poval 706) solution was spin-coated at 1500 rpm so that the dry-state thickness became 1 μm to give a over-coat layer. A step tablet was piled closely on the resulting photosensitive layer, and the rays having the wavelength around 630, 650 or 680 nm were irradiated from 3kw ultra-high pressure mercury lamp through a glass filter. The rays having the wavelength around 630 nm (155 μJ/cm^2 ·s) were obtained by passing the rays from the above mercury lamp through a colored glass filter R-61, an interference filter KL-63 (both were manufactured by Toshiba Glass Co., Ltd.) and a heat rays absorbing filter HA-30 (manufactured by HOYA Corporation), the rays having the wavelength around 650 nm (177 μJ/cm^2 ·s) were obtained by passing the rays from the above mercury lamp through a colored glass filter R-63, an interference filter KL-65 (both were manufactured by Toshiba Glass Co., Ltd.) and HA-30 and the rays having the wavelength around 680 nm (88 μJ/cm^2 ·s) were obtained by passing the rays from the above mercury lamp through a glass filter R-66, an interference filter KL-68 (both were manufactured by Toshiba Glass Co., Ltd.) and HA-30. Then, the development was carried out with a PS plate developer DN3C (manufactured by Fujiphoto Film Co., Ltd.) diluted 1.5-folds with distilled water, an ink was attached thereon with a PS plate developing ink PI-2 (manufactured by Fujiphoto Film Co., Ltd.) and the sensitivity was scored by obtaining an energy amount necessary for hardening from hardening step number with an ink attached thereto.

[5] = Sensitivity of photosensitive layer with 3,3',4,4'-tetrakis(tert-butyldioxycarbonyl)benzophenone (Example 11); details: 630 nm
From the text: as §3
The sensitivity when the rays having the wavelength around 630 nm were irradiated was obtained by repeating the same procedures as those of Example 9 except that 8 parts of 3,3',4,4'-tetrakis(tert-butyldioxycarbonyl)benzophenone was used in place of 7.9 parts of 2,4,6-tris(tichloromethyl)-s-triazine.

[6] = Sensitivity of photosensitive layer with iron(II) hexafluorophosphate complex and CARBOSET XL-44 (Example 10); details: 630 nm; iron(II) hexafluorophosphate complex, CARBOSET XL-44
From the text: as §3
The sensitivity when the rays having the wavelength around 630 nm were irradiated was obtained by repeating the same procedures as those in Example 9 except that 8 parts of (.eta.^6 -benzene) (.eta.^5 -cyclopentadienyl)iron(II) hexafluorophosphate was used in place of 7.9 parts of 2,4,6-tris(trichloromethyl)-s-triazine and CARBOSET,XL-44 (manufactured by BF Goodrich) was used in place of polymethacrylate polymer (methyl ester/isobutyl ester/cyclohexyl ester/free carboxylic acid=27/36/25/12).

[7] = disclosed in JP-A 63-138345, JP-A 63-142346, JP-A 2-48665; cited from earlier work
[8] = background statement; cited from earlier work
[9] = in the dark, light screened; background statement; cited from earlier work

SMILES | logε [1] | λ max [1] [nm] | Relative value of degraded rate [2] | Relative value of degraded rate [3] | Sensitivity ([4]; 630 nm) [mJ/cm^2] | Sensitivity ([4]; 650 nm) [mJ/cm^2] | Sensitivity ([4]; 680 nm) [mJ/cm^2] | Sensitivity [5] [mJ/cm^2] | Sensitivity [6] [mJ/cm^2] | maximum absorption wavelength [7] [nm] | solubility in an organic solvent or a monomer [8] | degradation in photosensitizer solution [9]
CC(C)CCN1C(=CC2=C([O-])C(=CC3=[N+](CCC(C)C)c4ccc5ccccc5c4C3(C)C)C2=O)C(C)(C)c2c1ccc1ccccc21 [Compound 8] | 5.5 | 667 | 0.32 | 0.43 | – | – | – | – | – | – | – | –
CC(C)N1C(=CC2=C([O-])C(=CC3=[N+](C(C)C)c4ccc5ccccc5c4C3(C)C)C2=O)C(C)(C)c2c1ccc1ccccc21 [Compound 3] | 5.5 | 666 | 0.24 | 0.44 | 0.39 | 0.40 | 0.26 | 0.083 | – | – | – | –
CN1C(=CC2=C([O-])C(=CC3=[N+](C)c4ccc5ccccc5c4C3(C)C)C2=O)C(C)(C)c2c1ccc1ccccc21 [A, reference compound] | – | – | 1.0 | 1.0 | 0.91 | 0.56 | 0.65 | 0.43 | 11 | 673 | low solubility | easily degraded in the dark
CCCCCCN1C(=CC2=C([O-])C(=CC3=[N+](CCCCCC)c4ccc5ccccc5c4C3(C)C)C2=O)C(C)(C)c2c1ccc1ccccc21 [Compound 9] | 5.5 | 668 | 0.26 | 0.52 | – | – | – | 0.17 | 8.7 | – | – | –
CCCN1C(=CC2=C([O-])C(=CC3=[N+](CCC)c4ccc5ccccc5c4C3(C)C)C2=O)C(C)(C)c2c1ccc1ccccc21 [Compound 2] | 5.5 | 667 | 0.25 | 0.48 | 0.47 | 0.40 | 0.37 | – | – | – | – | –
CCCCN1C(=CC2=C([O-])C(=CC3=[N+](CCCC)c4ccc5ccccc5c4C3(C)C)C2=O)C(C)(C)c2c1ccc1ccccc21 [Compound 4] | – | – | 0.29 | 0.60 | 0.39 | 0.40 | 0.37 | – | – | – | – | –
CC(C)CN1C(=CC2=C([O-])C(=CC3=[N+](CC(C)C)c4ccc5ccccc5c4C3(C)C)C2=O)C(C)(C)c2c1ccc1ccccc21 [Compound 5] | 5.5 | 669 | 0.15 | 0.42 | 0.47 | 0.56 | 0.28 | 0.20 | 11 | – | – | –
CCCCCN1C(=CC2=C([O-])C(=CC3=[N+](CCCCC)c4ccc5ccccc5c4C3(C)C)C2=O)C(C)(C)c2c1ccc1ccccc21 [Compound 6] | 5.5 | 667 | 0.28 | 0.46 | 0.56 | 0.40 | 0.37 | 0.099 | 5.8 | – | – | –
CCCCN1C(=CC2=C([O-])C(=CC3=[N+](CCCC)c4ccc5ccccc5c4C3(C)C)C2=O)C(C)(C)c2c1ccc1ccccc21 [Compound 7] | – | – | 0.31 | 0.56 | 0.47 | 0.40 | 0.37 | 0.20 | 5.8 | – | – | –
CCN1C(=CC2=C([O-])C(=CC3=[N+](CC)c4ccc5ccccc5c4C3(C)C)C2=O)C(C)(C)c2c1ccc1ccccc21 [Compound 1] | – | – | 0.34 | 0.51 | 0.47 | 0.40 | 0.37 | – | – | – | – | –
